Data on twelve compounds can be found in patent publication US11370794B2, “Toll-like receptor antagonist compounds and methods of use” (Dynavax Technologies Corporation, priority 2016, dated 2022).

Experiment [1] addresses T1, human TLR8 (Homo sapiens, UniProt Q9NR97).
T1 construct: endogenous in cells; host or cells: primary human monocytes (CD14 microbeads) from buffy coats of healthy donors
T1 sequence (Q9NR97 27-1041): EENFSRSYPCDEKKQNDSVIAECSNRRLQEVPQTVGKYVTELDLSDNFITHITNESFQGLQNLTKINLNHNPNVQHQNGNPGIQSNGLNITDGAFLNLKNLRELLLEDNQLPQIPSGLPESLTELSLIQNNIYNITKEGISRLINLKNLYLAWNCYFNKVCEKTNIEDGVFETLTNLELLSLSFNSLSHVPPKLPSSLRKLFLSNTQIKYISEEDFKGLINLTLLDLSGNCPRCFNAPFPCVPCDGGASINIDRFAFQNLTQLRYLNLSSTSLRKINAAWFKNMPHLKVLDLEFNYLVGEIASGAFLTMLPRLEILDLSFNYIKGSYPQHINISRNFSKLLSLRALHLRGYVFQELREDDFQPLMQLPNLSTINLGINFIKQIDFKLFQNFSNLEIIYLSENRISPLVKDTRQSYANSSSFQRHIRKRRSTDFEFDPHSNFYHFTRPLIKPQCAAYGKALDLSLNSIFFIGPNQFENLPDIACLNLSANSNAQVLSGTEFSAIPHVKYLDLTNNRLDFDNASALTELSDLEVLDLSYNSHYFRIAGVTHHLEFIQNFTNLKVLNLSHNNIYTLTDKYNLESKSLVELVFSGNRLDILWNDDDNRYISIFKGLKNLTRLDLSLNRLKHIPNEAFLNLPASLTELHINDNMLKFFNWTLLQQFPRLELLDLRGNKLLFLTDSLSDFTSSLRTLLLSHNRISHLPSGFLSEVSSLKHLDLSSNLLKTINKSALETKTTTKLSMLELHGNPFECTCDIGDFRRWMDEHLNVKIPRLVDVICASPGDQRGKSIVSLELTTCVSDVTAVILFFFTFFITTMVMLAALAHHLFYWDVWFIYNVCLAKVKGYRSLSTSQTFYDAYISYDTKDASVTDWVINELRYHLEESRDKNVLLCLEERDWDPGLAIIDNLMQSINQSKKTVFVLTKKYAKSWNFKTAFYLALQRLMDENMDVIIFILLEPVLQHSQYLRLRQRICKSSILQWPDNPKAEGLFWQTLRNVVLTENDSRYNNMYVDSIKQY
As to the kind of experiment: Inhibition of human TLR8 in human monocytes (TNF-alpha / IL-1 beta ELISA). In kind it is cell-based. The following applies: for IC50: human monocytes, agonist ORN8L 100 μg/mL, 24 hours. The text has this:
Example B2—Inhibition of Human TLR8 in Human Monocytes
When placed in cell culture, engagement of TLR8 with an agonist leads to expression and release of cytokines into the media.
Buffy coats from anonymized, healthy human donors. CD14 microbeads (Milteny Cat. No. 130-050-201). TLR8 agonist, (5′-M2UGCUGCUUGUG-/glycerol/-GUGUUCGUCGUM2-5′ with M2=C6-linker, ORN8L, RNA oligonucleotide (Chem Genes Corp.). Human TNF-alpha ELISA kit (Mabtech Cat. No. 3510-1H-20). Human interleukin (IL)-1 beta ELISA kit (Mabtech Cat. No. 3415-1H-20).
Following isolation of monocytes from buffy coats, human monocytes were plated into 96 well plates at approximately 200,000 cells per well. Test compounds were serially diluted and added to the plates. Immediately after adding test compounds, the TLR8 agonist (ORN8L, RNA oligonucleotide) was added to a final concentration of 100 μg/mL. Cells were incubated for 24 hours at 37° C. A portion of the media supernatant was analyzed for the presence of TNF-alpha and/or IL-1 beta using ELISA kits. The amount of TNF-alpha or IL-1 beta produced is a reflection of the amount of TLR8-dependent receptor activity. The IC50 values (the concentration at which 50% of the TLR8-dependent receptor activity is reduced) were calculated based upon the TLR8-dependent receptor activity over a range of different test compound concentrations.
In general terms: An ELISA detects its analyte on a solid surface through an enzyme-linked reagent.

Experiment [2] addresses T2, human TLR9 (Homo sapiens, UniProt Q9NR96).
T2 construct: endogenous in cells; host or cells: primary human B cells (CD19 microbeads) from buffy coats of healthy donors
T2 sequence (Q9NR96 26-1032): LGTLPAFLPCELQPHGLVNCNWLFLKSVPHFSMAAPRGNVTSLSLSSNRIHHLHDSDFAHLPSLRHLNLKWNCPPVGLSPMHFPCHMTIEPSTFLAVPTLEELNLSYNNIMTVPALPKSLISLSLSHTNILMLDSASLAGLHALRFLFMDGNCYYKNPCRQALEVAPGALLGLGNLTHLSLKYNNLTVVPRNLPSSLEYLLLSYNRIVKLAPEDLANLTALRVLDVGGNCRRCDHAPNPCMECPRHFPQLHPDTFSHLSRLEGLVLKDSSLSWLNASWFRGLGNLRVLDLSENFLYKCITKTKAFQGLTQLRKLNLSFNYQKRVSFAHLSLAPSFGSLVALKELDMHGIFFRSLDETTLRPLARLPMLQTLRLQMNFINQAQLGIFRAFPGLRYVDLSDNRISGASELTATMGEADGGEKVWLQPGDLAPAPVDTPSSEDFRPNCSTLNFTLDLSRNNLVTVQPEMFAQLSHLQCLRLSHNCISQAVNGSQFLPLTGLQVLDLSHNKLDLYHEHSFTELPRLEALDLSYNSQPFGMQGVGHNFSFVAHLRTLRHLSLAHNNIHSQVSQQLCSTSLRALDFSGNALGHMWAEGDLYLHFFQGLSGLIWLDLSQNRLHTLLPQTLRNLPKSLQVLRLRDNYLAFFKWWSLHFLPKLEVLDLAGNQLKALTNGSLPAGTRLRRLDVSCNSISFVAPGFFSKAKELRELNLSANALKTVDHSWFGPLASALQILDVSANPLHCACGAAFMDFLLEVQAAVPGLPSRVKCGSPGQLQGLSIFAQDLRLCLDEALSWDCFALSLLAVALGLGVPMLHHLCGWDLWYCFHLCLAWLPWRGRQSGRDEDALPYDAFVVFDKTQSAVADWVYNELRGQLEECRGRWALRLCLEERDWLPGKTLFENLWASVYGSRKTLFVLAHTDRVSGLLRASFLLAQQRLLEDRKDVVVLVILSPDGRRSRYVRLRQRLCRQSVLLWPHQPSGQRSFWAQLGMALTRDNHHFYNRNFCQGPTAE
As to the kind of experiment: Inhibition of human TLR9 in human B cells (IL-6 ELISA). The class given is cell-based. The settings on record: for IC50: human B cells, agonist 1018 ISS 1 μM; for inhibits TLR9-dependent responses (in words): summary statement of the description. The procedure: Example B3—Inhibition of Human TLR9 in Human B Cells
When placed in cell culture, engagement of TLR9 with an agonist leads to expression and release of cytokines into the media.
Buffy coats from anonymized, healthy human donors. CD19 microbeads (Miltenyi Cat. No. 130-050-301). TLR9 agonist, 1018 ISS, CpG-containing DNA oligonucleotide. Human interleukin (IL)-6 ELISA kit (Mabtech Cat. No. 3460-1H-20).
Following isolation of […] from buffy coats, human B cells were plated into 96 well plates at approximately 300,000 cells per well. Test compounds were serially diluted and added to the plates. Test compounds were typically assayed using a concentration range from about 0.01 μM to about 10 μM. Certain test compounds were further assayed in an expanded dilution series using a compound concentration range from about 0.001 μM to about 30 μM. Immediately after adding test compounds, the TLR9 agonist (1018 ISS, CpG-containing DNA oligonucleotide) was added to a final concentration of 1 μM. Cells were incubated for 48 hours at 37° C. A portion of the media supernatant was analyzed for the presence of IL-6 using ELISA kits. The amount of IL-6 produced is a reflection of the amount of TLR9-dependent receptor activity. The IC50 values (the concentration at which 50% of the TLR9-dependent receptor activity is reduced) were calculated based upon the TLR9-dependent receptor activity over a range of different test compound concentrations.

The mark [3] stands for this setting: TNF-alpha readout, read-out: Human TLR8 IC50 TNF-a.
Setting [4] is: IL-6 readout, 48 hours, range about 0.01 to 10 μM, read-out: Human TLR9 IC50.
Setting [5] is: IL-1 beta readout, read-out: Human TLR8 IC50 IL-1b.
Setting [6] is: IL-6, 48 hours, expanded dilution series about 0.001 to 30 μM, read-out: Human TLR9 IC50, expanded dilution series.

A word on the IC50: it is the concentration that inhibits the measured activity by half.

Like-named read-outs stand apart in the source and are kept apart here. Bounds are passed on as bounds.

Regarding `Cc1ccc(-n2nc3c(N4CCC(C(=O)N5CCC(N(C)Cc6ccccc6)CC5)CC4)nnc(C)c3c2C)cc1` [compound 67, (4-(benzyl(methyl)amino)piperidin-1-yl)(1-(3,4-dimethyl-2-(p-tolyl)-2H-pyrazolo[3,4-d]pyridazin-7-yl)piperidin-4-yl)methanone], the values for the IC50 in experiment [1] (setting [3]) and in experiment [2] (setting [4]) were 480 nM and 49 nM, respectively. The “inhibits TLR8-dependent responses (in words)” value in experiment [1] (summary statement of the description) is given as “inhibit”. In experiment [2], the “inhibits TLR9-dependent responses (in words)” value is “inhibit”.
Turning to `Cc1ccc(-n2nc3c(N4CCC(C(=O)NCCCCCN(C)C)CC4)nnc(C)c3c2C)cc1` [compound 32, 1-(3,4-dimethyl-2-(p-tolyl)-2H-pyrazolo[3,4-d]pyridazin-7-yl)-N-(5-(dimethylamino)pentyl)piperidine-4-carboxamide], the figures for the 50% inhibitory concentration (IC50) in experiment [1] (setting [5]), in experiment [1] (setting [3]) and in experiment [2] (setting [4]) were above 10000 nM, above 10000 nM and 55 nM, respectively.
As for `Cc1ccc(-n2nc3c(N4CCC(C(=O)NCCCN(C)C)CC4)nncc3c2C)cc1` [compound 42, N-(3-(dimethylamino)propyl)-1-(3-methyl-2-(p-tolyl)-2H-pyrazolo[3,4-d]pyridazin-7-yl)piperidine-4-carboxamide], the results for the IC50 in experiment [1] (setting [3]) and in experiment [2] (setting [4]) were at least 20000 nM and 133 nM, respectively.
Regarding `Cc1ccc(-n2cc3cnnc(N4CCC(C(=O)NCCN(C)C)CC4)c3n2)cc1` [compound 46, N-(2-(dimethylamino)ethyl)-1-(2-(p-tolyl)-2H-pyrazolo[3,4-d]pyridazin-7-yl)piperidine-4-carboxamide], the IC50 in experiment [1] (setting [3]) is at least 20000 nM; in experiment [2] (setting [6]), 10 nM; in experiment [2] (setting [4]), 2 nM. Moreover, the “inhibits TLR9-dependent responses (in words)” value in experiment [2] is reported as “inhibit”.
As to `Cc1ccc(-n2nc3c(N4CCC(C(=O)N5CC6CNCC6C5)CC4)nnc(C)c3c2C)cc1` (centres unmarked) [compound 71, (1-(3,4-dimethyl-2-(p-tolyl)-2H-pyrazolo[3,4-d]pyridazin-7-yl)piperidin-4-yl) (hexahydropyrrolo[3,4-c]pyrrol-2(1H)-yl)methanone], the figures for the IC50 in experiment [1] (setting [3]) and in experiment [2] (setting [4]) were at least 20000 nM and 588 nM, respectively.
Turning to `CCN(CC)CCNC(=O)C1CCN(c2nnc(C)c3c(C)n(-c4ccc(C)cc4)nc23)CC1` [20x, N-(2-(diethylamino)ethyl)-1-(3,4-dimethyl-2-(p-tolyl)-2H-pyrazolo[3,4-d]pyridazin-7-yl)piperidine-4-carboxamide], the IC50 was found to be 5040 nM in experiment [1] (setting [5]), 4860 nM in experiment [1] (setting [3]) and 3 nM in experiment [2] (setting [4]).
For the compound `Cc1ccc(-n2nc3c(N4CCC(C(=O)N5CCC(CN(C)Cc6ccccc6)C5)CC4)nnc(C)c3c2C)cc1` (centres unmarked) [compound 68, (3-((benzyl(methyl)amino)methyl)pyrrolidin-1-yl)(1-(3,4-dimethyl-2-(p-tolyl)-2H-pyrazolo[3,4-d]pyridazin-7-yl)piperidin-4-yl)methanone], the half-inhibitory concentration (IC50) in experiment [1] (setting [3]) was 1180 nM; in experiment [2] (setting [4]), 85 nM.
Turning to `Cc1nnc(N2CCC(C(=O)N3CCN(C)CC3)CC2)c2nn(-c3ccccc3)c(C)c12` [59x, (1-(3,4-dimethyl-2-phenyl-2H-pyrazolo[3,4-d]pyridazin-7-yl)piperidin-4-yl)(4-methylpiperazin-1-yl)methanone], the 50% inhibitory concentration (IC50) in experiment [1] (setting [5]) came out at 2110 nM; in experiment [1] (setting [3]), 2040 nM; in experiment [2] (setting [4]), 59 nM.
In the case of `Cc1ccc(-n2nc3c(N4CCC(C(=O)N5CC[C@H](CN(C)C)C5)CC4)nnc(C)c3c2C)cc1` [Compound 45a, (R)-(1-(3,4-dimethyl-2-(p-tolyl)-2H-pyrazolo[3,4-d]pyridazin-7-yl)piperidin-4-yl)(3-((dimethylamino)methyl)pyrrolidin-1-yl)methanone], the “inhibits TLR9-dependent responses (in words)” value in experiment [2] is “inhibit”.
The same measure, in the same setting: to `Cc1ccc(-n2nc3c(N4CCC(C(=O)N5CC[C@@H](CN(C)C)C5)CC4)nnc(C)c3c2C)cc1` [Compound 45b, (S)-(1-(3,4-dimethyl-2-(p-tolyl)-2H-pyrazolo[3,4-d]pyridazin-7-yl)piperidin-4-yl)(3-((dimethylamino)methyl)pyrrolidin-1-yl)methanone] belongs “inhibit”.
On to `Cc1ccc(-n2nc3c(N4CCC(C)(C(=O)NCCCN(C)C)CC4)nnc(C)c3c2C)cc1` [compound 20, 1-(3,4-dimethyl-2-(p-tolyl)-2H-pyrazolo[3,4-d]pyridazin-7-yl)-N-(3-(dimethylamino)propyl)-4-methylpiperidine-4-carboxamide], for which the IC50 in experiment [2] (setting [6]) came out at 24 nM; in experiment [2] (setting [4]) it was 18 nM.
Regarding `Cc1ccc(-n2cc3cncc(N4CCC(C(=O)NCCCN(C)C)CC4)c3n2)cc1` [Compound No. 55, N-(3-(dimethylamino)propyl)-1-(2-(p-tolyl)-2H-pyrazolo[4,3-c]pyridin-7-yl)piperidine-4-carboxamide], the values for the IC50 in experiment [2] (setting [6]) and in experiment [2] (setting [4]) were 9 nM and 7 nM, respectively.
